Measured values from ChEMBL document CHEMBL5518224, “Rational Design of PARP1/c-Met Dual Inhibitors for Overcoming PARP1 Inhibitor Resistance Induced by c-Met Overexpression” (J Med Chem, 2024).

Tests used:
[1] = molecular target: Hepatocyte growth factor receptor (Homo sapiens, UniProt P08581); experiment: Inhibition of c-Met (unknown origin)
[2] = system: Olaparib-resistant HCT116; experiment: Antitumor activity against human Olaparib-resistant HCT116 cells xenografted in female Balb/c nude mouse assessed as tumor growth inhibition at 50 mg/kg/day, ip qd administered for 21 days relative to control; format: functional; settings: Mus musculus, Olaparib-resistant HCT116, 504 h, time 21 day, read-out: TGI
MDA-MB-231 [3] = experiment: Antitumor activity against human MDA-MB-231 cells xenografted in female Balb/c nude mouse assessed as tumor growth inhibition at 50 mg/kg/day, ip qd administered for 28 days relative to control; format: functional; settings: Mus musculus, MDA-MB-231, 672 h, time 28 day, read-out: TGI
[4] = Clearance in male SPF-ICR mouse at 10 mg/kg, ip measured upto 24 hrs by LC-MS/MS analysis; format: ADME, organism-based; settings: in vivo
[5] = Toxicity in female Balb/c nude mouse xenografted with human Olaparib-resistant HCT116 cells assessed as body weight loss at 25 to 100 mg/kg, ip qd administered for 21 days; format: organism-based, HCT-116; settings: in vivo, 504 h, dose 25-100 mg/kg, time 21 day
[6] = Toxicity in female Balb/c nude mouse xenografted with human MDA-MB-231 cells assessed as body weight loss at 12.5 to 50 mg/kg, ip qd administered for 28 days; format: organism-based; settings: in vivo, 672 h, dose 12.5-50 mg/kg, time 28 day
MDA-MB-231 [7] = experiment: Antitumor activity against human MDA-MB-231 cells xenografted in female Balb/c nude mouse assessed as tumor growth inhibition at 12.5 mg/kg/day, ip qd administered for 28 days relative to control; format: functional; settings: MDA-MB-231, 672 h, time 28 day, read-out: TGI
[8] = system: Olaparib-resistant HCT116; experiment: Antitumor activity against human Olaparib-resistant HCT116 cells xenografted in female Balb/c nude mouse assessed as tumor growth inhibition at 5 mg/kg/day, iv qd administered for 21 days relative to control; format: functional; settings: Olaparib-resistant HCT116, 504 h, time 21 day, read-out: TGI
[9] = system: Olaparib-resistant HCT116; experiment: Antitumor activity against human Olaparib-resistant HCT116 cells xenografted in female Balb/c nude mouse assessed as tumor growth inhibition at 100 mg/kg/day, ip qd administered for 21 days relative to control; format: functional; settings: Olaparib-resistant HCT116, 504 h, time 21 day, read-out: TGI
[10] = Half life in male SPF-ICR mouse at 10 mg/kg, ip measured upto 24 hrs by LC-MS/MS analysis; format: ADME, organism-based; settings: in vivo
[11] = Toxicity in female Balb/c nude mouse xenografted with human MDA-MB-231 cells assessed as adverse effects at 12.5 to 50 mg/kg, ip qd administered for 28 days; format: organism-based; settings: in vivo, 672 h, dose 12.5-50 mg/kg, time 28 day
[12] = MRT (0 to t) in male SPF-ICR mouse at 10 mg/kg, ip measured upto 24 hrs by LC-MS/MS analysis; format: ADME, organism-based; settings: in vivo
[13] = AUC (0 to t) in male SPF-ICR mouse at 10 mg/kg, ip measured upto 24 hrs by LC-MS/MS analysis; format: ADME, organism-based; settings: in vivo
[14] = system: Olaparib-resistant HCT116; experiment: Antitumor activity against human Olaparib-resistant HCT116 cells xenografted in female Balb/c nude mouse assessed as tumor growth inhibition at 25 mg/kg/day, ip qd administered for 21 days relative to control; format: functional; settings: Olaparib-resistant HCT116, 504 h, time 21 day, read-out: TGI
[15] = MRT (0 to infinity) in male SPF-ICR mouse at 10 mg/kg, ip measured upto 24 hrs by LC-MS/MS analysis; format: ADME, organism-based; settings: in vivo
MDA-MB-231 [16] = experiment: Antitumor activity against human MDA-MB-231 cells xenografted in female Balb/c nude mouse assessed as tumor growth inhibition at 25 mg/kg/day, ip qd administered for 28 days relative to control; format: functional; settings: MDA-MB-231, 672 h, time 28 day, read-out: TGI
[17] = Tmax in male SPF-ICR mouse at 10 mg/kg, ip measured upto 24 hrs by LC-MS/MS analysis; format: ADME, organism-based; settings: in vivo
[18] = AUC (0 to infinity) in male SPF-ICR mouse at 10 mg/kg, ip measured upto 24 hrs by LC-MS/MS analysis; format: ADME, organism-based; settings: in vivo
[19] = Cmax in male SPF-ICR mouse at 10 mg/kg, ip measured upto 24 hrs by LC-MS/MS analysis; format: ADME, organism-based; settings: in vivo
[20] = Toxicity in female Balb/c nude mouse xenografted with human Olaparib-resistant HCT116 cells assessed as adverse effects at 25 to 100 mg/kg, ip qd administered for 21 days; format: organism-based, HCT-116; settings: in vivo, 504 h, dose 25-100 mg/kg, time 21 day

Sequence of Hepatocyte growth factor receptor (P08581 whole entry): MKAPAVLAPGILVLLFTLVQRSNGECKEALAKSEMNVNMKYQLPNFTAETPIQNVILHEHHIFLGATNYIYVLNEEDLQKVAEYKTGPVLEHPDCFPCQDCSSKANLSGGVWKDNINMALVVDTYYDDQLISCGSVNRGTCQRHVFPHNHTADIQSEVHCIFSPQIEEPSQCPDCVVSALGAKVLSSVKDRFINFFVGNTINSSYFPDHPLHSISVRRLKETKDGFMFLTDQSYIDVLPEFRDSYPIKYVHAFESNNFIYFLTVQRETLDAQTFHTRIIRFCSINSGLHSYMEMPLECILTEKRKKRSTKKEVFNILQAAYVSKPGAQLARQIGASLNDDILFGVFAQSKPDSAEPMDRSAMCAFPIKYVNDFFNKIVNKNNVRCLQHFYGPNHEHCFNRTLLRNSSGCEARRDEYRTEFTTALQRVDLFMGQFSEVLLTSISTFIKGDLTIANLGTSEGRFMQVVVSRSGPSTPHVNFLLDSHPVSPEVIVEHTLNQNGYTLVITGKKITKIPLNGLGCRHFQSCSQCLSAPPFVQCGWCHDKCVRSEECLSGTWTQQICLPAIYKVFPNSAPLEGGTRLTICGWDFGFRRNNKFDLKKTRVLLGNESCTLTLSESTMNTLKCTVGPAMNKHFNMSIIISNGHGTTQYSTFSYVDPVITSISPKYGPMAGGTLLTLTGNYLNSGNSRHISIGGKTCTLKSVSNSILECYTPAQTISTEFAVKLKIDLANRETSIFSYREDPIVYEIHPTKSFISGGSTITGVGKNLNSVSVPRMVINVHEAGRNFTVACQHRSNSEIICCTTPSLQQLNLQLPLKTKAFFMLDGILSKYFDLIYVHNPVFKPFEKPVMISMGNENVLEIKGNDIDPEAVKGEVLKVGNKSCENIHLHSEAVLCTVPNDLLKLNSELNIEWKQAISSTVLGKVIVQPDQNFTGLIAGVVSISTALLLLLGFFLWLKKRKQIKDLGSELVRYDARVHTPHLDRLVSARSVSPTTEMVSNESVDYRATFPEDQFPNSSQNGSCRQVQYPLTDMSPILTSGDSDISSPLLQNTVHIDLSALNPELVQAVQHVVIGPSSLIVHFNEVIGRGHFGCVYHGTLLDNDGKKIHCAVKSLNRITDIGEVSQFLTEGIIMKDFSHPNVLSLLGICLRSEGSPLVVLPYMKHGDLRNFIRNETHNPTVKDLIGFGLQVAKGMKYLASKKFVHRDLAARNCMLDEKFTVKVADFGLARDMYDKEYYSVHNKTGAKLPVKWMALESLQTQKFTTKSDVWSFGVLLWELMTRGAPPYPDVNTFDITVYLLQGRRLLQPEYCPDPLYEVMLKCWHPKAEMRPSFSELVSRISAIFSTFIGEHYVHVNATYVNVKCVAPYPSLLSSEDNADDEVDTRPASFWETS

Structure (SMILES): O=C1NC(=O)[C@@H](c2cn3c4c(cccc24)CCC3)[C@@H]1c1c[nH]c2ccccc12 [TIVANTINIB]
- Ki [1]: 0.335 µM

Structure (SMILES): Cl.O=C(c1cc(Cc2n[nH]c(=O)c3ccccc23)ccc1F)N1CCN(c2ccc3c(OCCn4nc(-c5cccnc5)ccc4=O)ccnc3c2)CC1
- inhibition in vivo at 50 mg/kg/day [2]: 64%
- inhibition in vivo at 50 mg/kg/day (MDA-MB-231 [3]): 77%
- CL/F [4]: 121 L/h/kg
- Activity [5]: Non-Toxic
- Activity [6]: Non-Toxic
- inhibition in vivo at 12.5 mg/kg/day (MDA-MB-231 [7]): 49%
- inhibition in vivo at 5 mg/kg/day [8]: 59%
- inhibition in vivo at 100 mg/kg/day [9]: 70%
- half-life [10]: 1.42 h
- Activity [11]: Non-Toxic
- MRT last at 24 h [12]: 1.67 h
- AUC(0-t) at 24 h [13]: 0.0954 µg·h/mL
- inhibition in vivo at 25 mg/kg/day [14]: 62%
- MRT inf [15]: 1.77 h
- inhibition in vivo at 25 mg/kg/day (MDA-MB-231 [16]): 60%
- Tmax [17]: 0.25 h
- AUC(0-inf) [18]: 0.0967 µg·h/mL
- Cmax [19]: 0.152 µg/mL
- Activity [20]: Non-Toxic
